Results published in patent publication US8575093B2, “Composition and method for treating Streptococcus pneumoniae infection” (priority 2006, dated 2013).

How the values were obtained:
[1] = system: S. pneumoniae serotype 3 strain WU2; experiment: Intraperitoneal lethal dose systemic infection (sepsis) mouse model; format: in vivo, BALB/c mice
Description: 1) A lethal dose of S. pneumoniae serotype 3 strain WU2 (100 CFU) was used in this experiment. Bacteria were either untreated or treated ex-vivo for 1 hr with FCRP and used to inoculate intraperitoneally 7 weeks old BALB/c mice.
2) A lethal dose of S. pneumoniae serotype 3 strain WU2 (100 CFU) was used in this experiment. Bacteria were co-administered intraperitonealy to 7 weeks old BALB/c mice in the presence and absence of FCRP. […] Furthermore, in mice infected in the absence of FCRP bacteria could be found in the spleens of 100% of the (FIG. 15B) mice.
3) In a similar experiment, the mice were inoculated with bacteria in the presence and absence of FCRP and the mice were monitored for their survival.

[2] = system: S. pneumoniae encapsulated serotype 3 strain WU2; experiment: Inhibition of S. pneumoniae adhesion to A549 cells, strain WU2; format: cell-based, Streptococcus pneumoniae; conditions: 15 μg/well; FIG. 3A
Protocol: (§1) Inhibition of S. pneumoniae adhesion to A549 cells by addition of phages: A549 cells (type II epithelial lung carcinoma cells; ATCC, Rockville, Md., USA) were grown in DMEM medium supplemented with 10% foetal calf serum with penicillin and streptomycin (100 μg/ml each) at 37° C. in a humidified incubator. A549 cells (2.5×10^4/well) were cultured on fibronectin coated plates, to increase A549 cell adhesion to the wells and prevent their detachment during washings, in the absence of antibiotic for 24 hours at which time the cells reached confluence (5×10^4 cells/well on average). The plates were blocked with 1% gelatine for 1 hour and 10^6 CFU bacteria were added per well. The adhesion of S. pneumoniae to uncoated plates was negligible (<80 CFU/ml). The number of bacteria that adhered to fibronectin coated plates (8000±100 SD CFU/ml on average) was subtracted afterwards to determine the net number of bacteria that adhered to the A549 cells only. rFBA at the denoted concentrations (ranging from 5-30 μg/ml) was added to the cultured cells and incubated for an hour. Following extensive washings S. pneumoniae (10^6 CFU) were added for 1 hour incubation. To identify phages able to interfere in bacterial adhesion the bacteria were preincubated with the phages for 1 hour centrifuged and added to the cultured cells. […]

[3] = system: S. pneumoniae serotype 3 strain WU2; experiment: Intranasal inoculation mouse model: nasopharyngeal and lung colonization; format: in vivo, BALB/c mice; conditions: 10^7 bacteria
[4] = system: S. pneumoniae encapsulated serotype 2 strain D39; experiment: Inhibition of S. pneumoniae adhesion to A549 cells, strain D39; format: cell-based, Streptococcus pneumoniae; conditions: p<0.001
Protocol: as §1, with “incubation.” for “incubation. To identify phages able to interfere in bacterial adhesion the bacteria were preincubated with the phages for 1 hour centrifuged and added to the cultured cells.”
(§2) The ability of FC derived synthetic peptide to interfere in S. pneumoniae adhesion to A459 cells was analyzed. […]

[5] = system: Unencapsulated S. pneumoniae serotype 3 strain 3.8DW; experiment: Inhibition of S. pneumoniae adhesion to A549 cells, strain 3.8DW; format: cell-based, Streptococcus pneumoniae; conditions: 20 μg/well; FIG. 3B
Protocol: as §1

[6] = system: S. pneumoniae unencapsulated serotype 2 strain R6; experiment: Inhibition of S. pneumoniae adhesion to A549 cells, strain R6; format: cell-based, Streptococcus pneumoniae
Protocol: as §1, with “incubation.” for “incubation. To identify phages able to interfere in bacterial adhesion the bacteria were preincubated with the phages for 1 hour centrifuged and added to the cultured cells.”
as §2

What does the source list for “H-Ala-Asp-Ser-Asp-Ser-Asp-Ser-Asp-Leu-Ser-Leu-Glu-Glu-Glu-Arg-OH (H-ADSDSDSDLSLEEER-OH; listed as Homo sapiens) [FCRP, 15 amino acid peptide from Flamingo-cadherin]”?
survival rate ([1]; 100 CFU i.p., bacteria treated ex-vivo 1 hr, FIG. 14, p<0.05): increased the survival rate of the mice significantly; bacteria in the spleens ([1]; 100 CFU i.p., co-administered, FIG. 15): no bacteria could be recovered from the spleens; survival ([1]; lethal dose i.p., co-administration, FIG. 16, p<0.001): significant increase in survival; maximal inhibition of adhesion to A549 cells [2]: 80%; bacterial load (FIG. 13A) ([3]; one post inoculation treatment, 3 and 48 hrs): reduced bacterial load significantly; bacterial load in lungs (FIG. 13B) ([3]; post inoculation treatment, 24 hour): clear reduction in bacterial load; inhibition of adhesion to A549 ([4]; 5 μg/well): significantly; inhibition of adhesion to A549 cells ([4]; 20 μg/well): 90%; maximal adhesion inhibition [5]: 41%; inhibition of adhesion to A549 ([6]; 5 μg/well, p<0.001): significantly; inhibition of adhesion to A549 cells ([6]; 15 μg/well): 75%
